Patent US5019385A, “Novel lymphopine LK 2 and pharmaceutic compositions containing same” (Kabushiki Kaisha Hayashibara Seibutsu Kagaku Kenkyujo, priority 1984, dated 1991)
Counter-ions that a name gives are not always drawn.

Tests used:
HEp#2 = assay: enhancement of antioncotic effect of chemotherapeutics by LK 2 (Experiment C-1, Table V); format: cell-based, human; settings: ACNU 1.0×10^-6, 5-FU 1.5×10^-8, ADM 1.0×10^-10, MMC 2.5×10^-9 g/ml culture, VCR 1.5×10^-10 g/culture
Protocol: (§1) One human malignant tumor cell suspension (10^6 cells) was inoculated on 1 ml of conventional-type nutrient culture medium supplemented with foetal calf serum, and then cultured for one day. Thereafter, there was added to the culture 0.1 ml of saline containing 100 units of an LK 2 specimen, prepared by the method in Experiment A-3, and/or a chemotherapeutic, and cultured for an additional two days at 37° C.
(§2) As the control, an LK 2- and chemotherapeutic-free saline was used.
(§3) After completion of the culture, the number of viable cells was counted in accordance with the method in Experiment B-1, and the growth inhibition (%) was then determined.
(§4) The concentrations of the tested chemotherapeutics were as follows: nimustine hydrochloride (ACNU), 1.0×10^-6 g/ml culture; fluorouracil (5-FU), 1.5×10^-8 g/ml culture; doxorubicin (ADM), 1.0×10^-10 g/ml culture; mitomycin C (MMC), 2.5×10^-9 g/ml culture; and vincristine sulfate (VCR), 1.5×10^-10 g/culture.

HLE = assay: as above; format: cell-based, human; settings: ACNU 1.0×10^-6, 5-FU 1.5×10^-8, ADM 1.0×10^-10, MMC 2.5×10^-9 g/ml culture, VCR 1.5×10^-10 g/culture
Protocol: as §1, §2, §3, §4

HeLa = assay: as above; format: cell-based, human; settings: ACNU 1.0×10^-6, 5-FU 1.5×10^-8, ADM 1.0×10^-10, MMC 2.5×10^-9 g/ml culture, VCR 1.5×10^-10 g/culture
Protocol: as §1, §2, §3, §4

MKN 7 = assay: as above; format: cell-based, human; settings: ACNU 1.0×10^-6, 5-FU 1.5×10^-8, ADM 1.0×10^-10, MMC 2.5×10^-9 g/ml culture, VCR 1.5×10^-10 g/culture
Protocol: as §1, §2, §3, §4

PC-8 = assay: as above; format: cell-based, human; settings: ACNU 1.0×10^-6, 5-FU 1.5×10^-8, ADM 1.0×10^-10, MMC 2.5×10^-9 g/ml culture, VCR 1.5×10^-10 g/culture
Protocol: as §1, §2, §3, §4

[1] = tested on: human breast cancer tissue; assay: tumor mass in nude mice, LK 2 and/or mitomycin C (Experiment C-2, Table VI); format: in vivo, human tissue in BALB/c nude mice; settings: MMC 1 mg/kg per day i.v., twenty days; control 10.8 ± 1.0; * significant vs control (5%)
Protocol: A group of BALB/c nude mice was transplanted subcutaneously in their dorsum areas with small fragments of human breast cancer tissue.
After the tumor masses grew to about 200 mm^3 in the bodies of the animals, saline containing an LK 2 preparation, obtained by the method described in Experiment A-3, and/or mitomycin C (MMC) was injected intravenously once every day for twenty days.
Thereafter, the animals were sacrificed, and the resultant tumor masses were weighed.
as §2

Row | SMILES | growth inhibition (%) to tumor cell (HEp#2; +, with LK 2 100 units) [%] | growth inhibition (%) to tumor cell (HEp#2; -, without LK 2) [%] | growth inhibition (%) to tumor cell (HLE; +, with LK 2 100 units) [%] | growth inhibition (%) to tumor cell (HLE; -, without LK 2) [%] | growth inhibition (%) to tumor cell (HeLa; +, with LK 2 100 units) [%] | growth inhibition (%) to tumor cell (HeLa; -, without LK 2) [%] | growth inhibition (%) to tumor cell (MKN 7; +, with LK 2 100 units) [%] | growth inhibition (%) to tumor cell (MKN 7; -, without LK 2) [%] | growth inhibition (%) to tumor cell (PC-8; +, with LK 2 100 units) [%] | growth inhibition (%) to tumor cell (PC-8; -, without LK 2) [%] | Tumor mass [1] [g]
1 | Cc1ncc(CNC(=O)N(CCCl)N=O)c(N)n1 [ACNU, nimustine hydrochloride] | 67 | 4 | 75 | 5 | 71 | 5 | 73 | 4 | 71 | 2 | 
2 | COc1cccc2c1C(=O)c1c(O)c3c(c(O)c1C2=O)C[C@@](O)(C(=O)CO)C[C@@H]3O[C@H]1C[C@H](N)[C@H](O)[C@H](C)O1 [ADM, doxorubicin] | 70 | 13 | 73 | 7 | 62 | 7 | 69 | 5 | 71 | 6 | 
3 | CO[C@@]12[C@H](COC(N)=O)C3=C(C(=O)C(C)=C(N)C3=O)N1C[C@@H]1N[C@@H]12 [MMC, mitomycin C] | 72 | 10 | 74 | 12 | 61 | 7 | 73 | 3 | 68 | 5 | 5.1 ± 0.4
4 | CC[C@]1(O)C[C@H]2CN(CCc3c([nH]c4ccccc34)[C@@](C(=O)OC)(c3cc4c(cc3OC)N(C=O)[C@H]3[C@@](O)(C(=O)OC)[C@H](OC(C)=O)[C@]5(CC)C=CCN6CC[C@]43[C@@H]65)C2)C1 (stereo in doubt) [VCR, vincristine sulfate] | 66 | 5 | 69 | 10 | 63 | 10 | 70 | 6 | 72 | 8 | 
5 | O=c1[nH]cc(F)c(=O)[nH]1 [5-FU, fluorouracil] | 80 | 8 | 81 | 8 | 69 | 12 | 77 | 6 | 85 | 10 | 
